# Marks after values point to notes of the source that are not given here.
# B1: IFN-γ: IFN-γ (γ-interferon) lymphokine given with or without TNF-α (protein, UniProt P01579 24-161, looked up)
# Interferon gamma: QDPYVKEAENLKKYFNAGHSDVADNGTLFLGILKNWKEESDRKIMQSQIVSFYFKLFKNFKDDQSIQKSVETIKEDMNVKFFNSNKKKRDDFEKLTNYSVTDLNVQRKAIHELIQVMAELSPAAKTGKRKRSQMLFRG
# What was measured:
# [1] = system: 2237 tumor cells (syngeneic fibrosarcoma); test: Immunization with radiation killed 2237 tumor cells plus adjuvant, then footpad challenge with live 2237 cells; tumor volume by calipers; format: in vivo, C3H/HeN mice
# Source text: C3H/HeN mice were immunized with 1×10^5 radiation killed 2237 tumor cells. The 2237 cell line is a moderately antigenic syngeneic fibrosarcoma obtained from s.c. growing tumors by collagenase dissociation. The donor tumor cells for use in tumor vaccine were irradiated with 10,000 R of gamma irradiation. Irradiation ultimately kills the cells but they are not immediately killed, indeed the cells may be able to undergo one or two additional divisions before a sufficient accumulation of chromosomal breaks or other abnormalities is obtained to result in a lethal event. Thus, irradiation results in a metabolically viable but noncontinuously proliferating cell. The cells were admixed with HBSS alone (serving as a non-adjuvant killed cell control vaccine), or with HBSS containing various doses of homogeneous recombinant Val-terminal human TNF-α alone or TNF-α plus IFN-γ. The mixture was injected intradermally into the posterior ventral region at five sites. Controls also included TNF without tumor cells, injections of HBSS alone (without killed 2237 cells), and FK565, a dimuramyl dipeptide derivative representing a known adjuvant as a positive control. Primary immunization with 2237 cells and TNF-α occurred on day 1; TNF-α was administered intraperitoneally alone on days 2 and 3. Secondary intradermal immunization occurred on day 11 with the same number of killed cells. When IFN-γ was used with TNF-α, IFN-γ administrations accompanied the TNF-α administration and further, IFN-γ, TNF-α or IFN-γ plus TNF-α were administered intraperitoneally on days 12 and 13. Five days after the second immunization the animals' footpads were injected with live 2237 cells. 48, 74 and 81 days later the tumors that had developed were measured by calipers in two dimensions. Numerous control animals had died by the last measurement day. […] Tumor volume was determined using the formula for a prolated sphere using the two dimensions previously measured. The formula is tumor volume (cm^3) equals ½ A×B^2; where A equals the larger tumor diameter and B equals the smaller tumor diameter.
# 2237 cells = test: Direct cytotoxic effect on 2237 cells; format: cell-based
# Source text: This is not especially relevant in the context of the foregoing experiments because the tumor cells were not injected into the animals until 2 days after they had last been exposed to cytokines.
# cytotoxic T cells = test: Development of cytotoxic T cells in 2237-cell immunized mice; format: in vivo
# [2] = system: bovine serum albumin (BSA); test: Serum antibody (IgG) against BSA by Elisa after BSA immunization; format: in vivo, C3H/HeN mice; details: for Production of antibody (IgG) against BSA: BSA 500 μg i.p. day 0 and second injection 100 μg, adjuvant at various doses, bled three days later, Elisa
# Protocol: C3H/HeN mice were given an i.p. injection of bovine serum albumin using a suboptimal vaccine dose (500 μg/animal), which was administered by i.p. injection on day 0. Various doses of TNF-α, as an adjuvant, were administered 48 hours following a second injection of BSA at 100 μg/animal. The mice were bled three days later and the serum antibody levels as IgG were determined using routine Elisa techniques. The i.v. injection of maleic divinyl ether with an average molecular weight of 20,000 daltons was used as a positive control.
# [3] = 500 μg per animal with killed 2237 cell vaccine
# [4] = 5 × 10^4 units per animal with killed 2237 cell vaccine
# [5] = 0.1 μg per animal with killed 2237 cell vaccine
# [6] = 1 μg per animal with killed 2237 cell vaccine
# [7] = 5 μg per animal with killed 2237 cell vaccine
molecule,measurement,setting,value
"CCCCCCC(=O)N[C@H](CCC(=O)N[C@@H](CCC[C@@H](N)C(=O)O)C(=O)N[C@H](C)C(=O)O)C(=O)O [FK565, reference compound]",Tumor Volume Day 48,[1]; [3],0 cm^3
same,Tumor Volume Day 74,[1]; [3],0 cm^3
same,Tumor Volume Day 81,[1]; [3],0 cm^3
IFN-γ: IFN-γ (γ-interferon) lymphokine given with or without TNF-α,Tumor Volume Day 48,[1]; [4],0 cm^3
same,Tumor Volume Day 74,[1]; [4],0 cm^3
same,Tumor Volume Day 81,[1]; [4],0 cm^3
TNF-α,Tumor Volume Day 48,[1]; [5],0 cm^3
same,Tumor Volume Day 74,[1]; [5],0 cm^3
same,Tumor Volume Day 81,[1]; [5],0 cm^3
same,Fate of the tumor that had developed in one animal,"[1]; 1 μg per animal group, footnote to Day 48 value",*The tumor that had developed in one animal in this group regressed before the end of the study.
same,Tumor Volume Day 48,[1]; [6],0.157* cm^3
same,Tumor Volume Day 74,[1]; [6],0 cm^3
same,Tumor Volume Day 81,[1]; [6],0 cm^3
same,Tumor Volume Day 48,[1]; [7],0 cm^3
same,Tumor Volume Day 74,[1]; [7],0 cm^3
same,Tumor Volume Day 81,[1]; [7],0 cm^3
same,Direct cytotoxic effect on 2237 cells,2237 cells,Neither TNF-α nor IFN-γ have any significant direct cytotoxic effect
same,Stimulation of the development of cytotoxic T cells,cytotoxic T cells,able to stimulate the development of cytotoxic T cells
same,Production of antibody (IgG) against BSA,[2],in a dose-dependent manner augmented
same,Serum antibody activity after injection of TNF alone,"[2]; control, TNF alone",did not induce serum antibody activity
"maleic divinyl ether [MVE-2, reference compound]",Production of antibody (IgG) against BSA,[2],in a dose-dependent manner augmented
B1,Direct cytotoxic effect on 2237 cells,2237 cells,Neither TNF-α nor IFN-γ have any significant direct cytotoxic effect
